The term IC50 denotes the concentration at which inhibition is half-maximal.

The subject of assay [1] is PEG-3. The experiment in a line: Peg3 promoter luciferase inhibitors, potency, dose response, cell-based, HeLa, CREF/GAPDH counter-screen panel (AID 624167). The following applies: HeLa PEG-Prom luciferase reporter, overnight, CREF/GAPDH counter-screens. For orientation: The purpose of a counterscreen is to sort out artefacts and off-target activity.
In assay [2] the target is PEG-3 (UniProt Q6IN02). The assay is described as above. The following applies: HeLa PEG-Prom luciferase reporter, overnight, CREF/GAPDH counter-screens, mean of runs.
Setting [3] is: run 1, dose range 1, individual replicate IC50 per panel.
[4] abbreviates: run 2, dose range 1, individual replicate IC50 per panel.

SMILES strings stand for the structures. Activity calls are given as the source filed them.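 How the source made its calls: active means mean IC50 for reducing PEG3 promoter reporter signal at or below a set limit, with IC50 above the limit in both counter screens; inactive means the rest, including counter screen hits.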

Sequence of PEG-3 (UniProt Q6IN02) (Q6IN02 whole entry, looked up): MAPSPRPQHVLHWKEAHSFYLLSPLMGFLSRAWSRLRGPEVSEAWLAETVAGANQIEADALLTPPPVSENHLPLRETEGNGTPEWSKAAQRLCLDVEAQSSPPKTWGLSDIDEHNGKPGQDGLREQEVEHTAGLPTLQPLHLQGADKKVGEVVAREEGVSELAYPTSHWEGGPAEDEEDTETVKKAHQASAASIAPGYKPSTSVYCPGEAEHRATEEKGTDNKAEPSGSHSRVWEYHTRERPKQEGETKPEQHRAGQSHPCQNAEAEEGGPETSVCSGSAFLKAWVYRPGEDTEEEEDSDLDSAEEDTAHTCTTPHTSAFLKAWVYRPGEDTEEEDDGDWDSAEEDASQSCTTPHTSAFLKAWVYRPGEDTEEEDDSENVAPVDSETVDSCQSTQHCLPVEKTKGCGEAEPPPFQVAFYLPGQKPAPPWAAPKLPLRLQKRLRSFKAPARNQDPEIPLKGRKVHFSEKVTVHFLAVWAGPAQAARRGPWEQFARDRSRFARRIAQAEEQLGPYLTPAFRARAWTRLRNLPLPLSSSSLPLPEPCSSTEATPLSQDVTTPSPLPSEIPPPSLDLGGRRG

For `COCCn1c(C)cc(C(=O)CSc2nnc3ccccn23)c1C`, the IC50 in the assay with PEG-3 [1] (setting [3]) is 8.34 µM; in the assay on PEG-3 [1] (setting [4]), 21.8 µM; at PEG-3 [2] it was 15.1 µM.
The matching figures for `Cc1cccc(NC(=O)CSc2nc3ccccc3c3nc(CCc4c(C)n[nH]c4C)nn23)c1`: 27.9 µM, 37.7 µM and “inactive”.
For `Cc1ccc(NS(=O)(=O)c2cc3c4c(cccc4c2)C(=O)NC3=O)cc1C`, in that order: 5.99 µM, over 100 µM and “inactive”.
The matching figures for `O=S(=O)(NC1CC(NS(=O)(=O)OCC(Cl)(Cl)Cl)C2CCCCC12)OCC(Cl)(Cl)Cl` (stereo not drawn): 10.8 µM, 11.9 µM and 11.4 µM.
`COc1cccc(-c2cnc3c(NC=O)cc(-c4cccc(C(=O)N(C)C)c4)cn23)c1`: the half-maximal inhibitory concentration (IC50) was 19.9 µM with PEG-3 [1] (setting [3]), 17.7 µM with PEG-3 [1] (setting [4]) and 18.8 µM at PEG-3 [2].
The matching figures for `Cc1ccc(C2(CCNCc3ccc(N(C)C)cc3)CCOC(C(C)C)C2)cc1` (stereo not drawn): 25.9 µM, 21.3 µM and “inactive”.
The matching figures for `CCC(=C(c1ccc(OC)cc1)c1ccc(OC)cc1)c1cn(CC(O)CN2CCN(C)CC2)c2ccccc12` (stereo not drawn): 18.9 µM, 12.5 µM and 15.7 µM.
As to `COc1ccc(-n2ncc3c(N(C)C4CCCCC4)ncnc32)cc1`, the IC50 in the assay on PEG-3 [1] (setting [3]) is 26.5 µM; in the assay on PEG-3 [1] (setting [4]) it was 44 µM. On PEG-3 [2], the IC50 entry is “inactive”.
The matching figures for `Cc1nc2c(OCc3ccc(OC(F)F)cc3)cccn2c1N(C)C(=O)CCC1CCCC1`: 28.9 µM, 23.5 µM and “inactive”.
For `CC1(C)C(=O)C=CC(=O)C(C)(C)C(=O)C=CC(=O)C(C)(C)C2=CC=C(O2)C(C)(C)C(=O)C=CC1=O`, in that order: 16.6 µM, 11.8 µM and 14.2 µM.
The matching figures for `CC1CCCCN1S(=O)(=O)c1ccc(C(=O)N(CCCN(C)C)c2nc3ccc(Br)cc3s2)cc1` (stereo not drawn): 19.1 µM, 10.9 µM and 15 µM.
Regarding `C/C(=N\N=C(N)N)c1ccc(Cl)cc1Cl`, the half-maximal inhibitory concentration (IC50) in the assay on PEG-3 [1] (setting [3]) was 18.7 µM; with PEG-3 [1] (setting [4]), 17.2 µM; at PEG-3 [2], 18 µM.
For `CCN1CCN(c2nc(Nc3cc(OC)ccc3OC)nc(Nc3cc(OC)ccc3OC)n2)CC1`, in that order: 17 µM, 18.1 µM and 17.5 µM.
For `COc1ccc(CC(N)c2csc(Nc3cccc(OC)n3)n2)cc1` (stereo not drawn), in that order: 17.6 µM, 14.2 µM and 15.9 µM.
Take `COc1cc(/C=C2\SC(=S)N(CCC(=O)N3CCCCC3)C2=O)cc(OC)c1OC`: the IC50 is 35.1 µM in the assay on PEG-3 [1] (setting [3]) and 19.1 µM with PEG-3 [1] (setting [4]). Besides, the IC50 entry on PEG-3 [2] is “inactive”.
The matching figures for `COc1ccccc1C1c2ccc3ccccc3c2Oc2ncn(CCCO)c(=N)c21` (stereo not drawn): 17.4 µM, 14.2 µM and 15.8 µM.
The matching figures for `CS(=O)(=O)c1ccc(C(=O)NCCN2C(=O)S/C(=C\c3cccnc3)C2=O)cc1[N+](=O)[O-]`: 17.3 µM, 12.7 µM and 15 µM.
For `Cc1cc(-n2c(SCC(=O)Nc3ccc(F)c(F)c3)nc3n[nH]c(C)c3c2=N)ccc1Cl`, in that order: 41 µM, 30.3 µM and “inactive”.
On to `Cc1cccc(/C=C2/Sc3ccc(C(=O)NCCN4CCCC4)cc3NC2=O)c1`, for which the figures for the 50% inhibitory concentration (IC50) with PEG-3 [1] (setting [3]), in the assay on PEG-3 [1] (setting [4]) and on PEG-3 [2] were 20.8 µM, 9.95 µM and 15.4 µM, respectively.
The matching figures for `CCN(Cc1ccccc1)S(=O)(=O)c1ccc(C(=O)N(CCCN(C)C)c2nc3cc4c(cc3s2)OCCO4)cc1`: 33.3 µM, over 100 µM and “inactive”.
For `CCn1cc(CN2CCC(C(=O)Nc3cccc(-c4cccc(Cl)c4)c3)CC2)c(C)n1`, in that order: 17.7 µM, 11.2 µM and 14.5 µM.
The matching figures for `O=C(Cn1ncc(Cl)c(Cl)c1=O)N1CCN(Cc2ccccc2)CC1`: 19.5 µM, 8.48 µM and 14 µM.
Regarding `CN(C)CCNc1ncnc2c1sc1nc(N3CCOCC3)c3c(c12)CC(C)(C)SC3`, the IC50 in the assay with PEG-3 [1] (setting [3]) was 18.1 µM; in the assay on PEG-3 [1] (setting [4]), 10.6 µM; at PEG-3 [2], 14.4 µM.
For `COc1ccc(Nc2nc(-c3ccccc3)nc3ccccc23)cc1S(=O)(=O)N1CCOCC1`, in that order: 9.14 µM, 33.9 µM and “inactive”.
The matching figures for `CCCN(CC(=O)Nc1cc(Cl)cc(Cl)c1)CC(=O)Nc1ccc(F)c(F)c1F`: 14.6 µM, 43.7 µM and “inactive”.
Consider `Cc1ccc(-c2nc(C(Cl)Cl)c3ccccc3n2)cc1`, for which the values for the IC50 with PEG-3 [1] (setting [3]) and in the assay with PEG-3 [1] (setting [4]) were over 100 µM and 9.67 µM, respectively. Besides, the IC50 result at PEG-3 [2] was “inactive”.
For `COc1ccc2sc3cccc(NCCN(C)C)c3c(=O)c2c1`, in that order: 21.6 µM, over 100 µM and “inactive”.
The matching figures for `O=S(=O)(N[C@H]1C[C@@H](NS(=O)(=O)OCC(Cl)(Cl)Cl)C2CCCCC21)OCC(Cl)(Cl)Cl` (stereo partly drawn): 15.1 µM, 9.83 µM and 12.5 µM.
For `COc1ccc(C(O)(CC(C)C)C(CN2CCOCC2)c2ccccc2)cc1` (stereo not drawn), in that order: over 100 µM, 6.84 µM and “inactive”.
`CN(C)CC1CCC/C(=C\c2ccc(OC(=O)/C=C/c3ccccc3)cc2)C1=O` (stereo not drawn): the values for the IC50 in the assay with PEG-3 [1] (setting [3]), in the assay with PEG-3 [1] (setting [4]) and at PEG-3 [2] were 21.8 µM, 7.3 µM and 14.6 µM, respectively.
For `Cc1c(C(=O)N2CCN(c3ccc(F)cc3)CC2)sc2ncnc(N3CCN(c4ccccn4)CC3)c12`, in that order: 11.9 µM, 15.6 µM and 13.7 µM.
For `Cc1cc(C)c2sc(N(CCCN(C)C)C(=O)c3ccc(S(=O)(=O)N4CCCc5ccccc54)cc3)nc2c1`, in that order: 20.7 µM, 8.73 µM and 14.7 µM.
For `O=C1NC(=S)N(c2ccccc2F)C(=O)/C1=C\c1cccs1`, in that order: 19.1 µM, 14.2 µM and 16.7 µM.
`COc1cccc(-c2sc3ccc(OC)cc3c2-c2ccc(OCCN(C)C)cc2)c1`: the IC50 in the assay on PEG-3 [1] (setting [3]) was 15.7 µM; with PEG-3 [1] (setting [4]), 15.2 µM; on PEG-3 [2] it was 15.5 µM.
For `O=C(O)CN1C(=O)/C(=C\c2ccccc2OCc2ccc(Cl)cc2Cl)SC1=S`, the 50% inhibitory concentration (IC50) was 16.6 µM in the assay with PEG-3 [1] (setting [3]), 17.2 µM with PEG-3 [1] (setting [4]) and 16.9 µM on PEG-3 [2].
In the case of `Cc1c(C(=O)N2CCC3(CC2)OCCO3)sc2ncnc(N3CCN(c4ccccn4)CC3)c12`, the IC50 was found to be 24 µM in the assay on PEG-3 [1] (setting [3]) and 29 µM with PEG-3 [1] (setting [4]). The IC50 entry on PEG-3 [2] was “inactive”.
With `CC(C)CC1C(=O)N(Cc2cn(CCC3OCCO3)nn2)CCS(=O)(=O)N1Cc1ccc(-c2ccc(F)cc2)cc1` (stereo not drawn), the values for the half-inhibitory concentration (IC50) in the assay on PEG-3 [1] (setting [3]) and in the assay with PEG-3 [1] (setting [4]) were 31.3 µM and 33.2 µM, respectively. For the same compound, the IC50 entry at PEG-3 [2] was “inactive”.
With `CC(NS(=O)(=O)OCC(Cl)(Cl)Cl)c1ccc(C(C)(C)C)cc1` (stereo not drawn), the IC50 in the assay with PEG-3 [1] (setting [3]) was 38.1 µM; with PEG-3 [1] (setting [4]), over 100 µM. Also, at PEG-3 [2], the IC50 entry is “inactive”.
The matching figures for `Cc1nc(N2CCN(c3ccccn3)CC2)c2c(C)c(C(=O)Nc3ccccc3F)sc2n1`: 9.97 µM, over 100 µM and “inactive”.
`Cc1nc(N2CCN(S(=O)(=O)c3ccccc3C#N)CC2)c2c(-c3ccccc3)csc2n1`: the IC50 in the assay with PEG-3 [1] (setting [3]) is over 100 µM; in the assay with PEG-3 [1] (setting [4]), over 100 µM; on PEG-3 [2] it was > 100 µM (inactive).
In the case of `COc1cccc(NC(=O)CN(C)C(=O)c2cccnc2Nc2cccc(C(F)(F)F)c2)c1`, the concentration for half-maximal inhibition (IC50) came out at 22.5 µM in the assay on PEG-3 [1] (setting [3]) and 24.2 µM in the assay on PEG-3 [1] (setting [4]). Moreover, on PEG-3 [2], the IC50 result was “inactive”.
The matching figures for `CCCc1nc(SCC(=O)N2CCCc3ccccc32)c2c(=O)n(C)c(=O)n(C)c2n1`: 49 µM, 38.2 µM and “inactive”.
For `CC(=O)Nc1cccc(-c2ccnc3c2CC(C)(C(=O)Nc2cccc(C(F)(F)F)c2)O3)c1` (stereo not drawn), in that order: 5.21 µM, over 100 µM and “inactive”.
For `O=C(CSc1nc(Nc2ccccc2)nc(N2CCOCC2)n1)Nc1cc(Cl)ccc1O`, in that order: 13 µM, 14.5 µM and 13.7 µM.
On to `CCN1CCN(C(c2ccc(C(F)(F)F)cc2)c2ccc3cccnc3c2O)CC1` (stereo not drawn), for which the values for the half-inhibitory concentration (IC50) in the assay on PEG-3 [1] (setting [3]), with PEG-3 [1] (setting [4]) and on PEG-3 [2] were 21.7 µM, 16.5 µM and 19.1 µM, respectively.
For `COc1ccc(NS(=O)(=O)c2ccc3ccccc3c2)c2ncccc12`, in that order: 13.5 µM, 21.6 µM and 17.6 µM.
For `COc1ccc(N(Cc2cc3cc(OC)ccc3[nH]c2=O)S(=O)(=O)c2ccc(NC(C)=O)cc2)cc1`, in that order: 17.8 µM, 11 µM and 14.4 µM.
As for `CCCCNC(=O)C(C)N(CCN(C)C)C(=O)CCCCCN1C(=O)NC(c2ccc(Cl)cc2)C(C(=O)OCc2ccccc2)=C1C` (stereo not drawn), the 50% inhibitory concentration (IC50) was 16.2 µM in the assay on PEG-3 [1] (setting [3]), 10.1 µM in the assay with PEG-3 [1] (setting [4]) and 13.2 µM on PEG-3 [2].
Take `CC(C)c1ccc(/C=N/Nc2ccc(C(=O)O)cc2)cc1`: the IC50 in the assay on PEG-3 [1] (setting [3]) was 11.1 µM; in the assay with PEG-3 [1] (setting [4]), 19.4 µM; at PEG-3 [2], 15.3 µM.
The matching figures for `CCCOC(=O)c1cccc(Nc2nc(-c3cccnc3)nc3ccccc23)c1`: 12.6 µM, 11.9 µM and 12.3 µM.
The matching figures for `COc1ccc(-c2cc(C(=O)N(C)Cc3cccc(OC)c3OC)c3ccccc3n2)cc1OC`: 12.7 µM, 71.2 µM and “inactive”.

Values taken from PubChem BioAssay AID624167 (Sanford-Burnham Center for Chemical Genomics, 2012).
